According to patent US12295937B2, “Psychoactive medicines and their use for treating psychiatric and neurological conditions and disorders” (Transcend Therapeutics, Inc., priority 2021, dated 2025):
Marks after values point to notes of the source that are not given here.

Legend:
[1] = Rat plasma pharmacokinetics by administration route; assay type: in vivo; settings: male, SD
Source text: Plasma was collected 0.25, 0.5, 1-, 2-, 4-, and 8-hours post-dose.

[2] = Methylone case series, Cohorts 1 and 2 (CGI-S/CGI-I, safety); assay type: in vivo, human
Protocol: CGI-S scale was also evaluated in a subset of patients from Cohort 2 post-treatment. Cohort 2 was evaluated for any observed or reported safety events following a single dosing session. Clinical Global Improvement Scale • Clinical Global Impressions (CGI) scale includes 2 components: CGI-S (“severity”) and CGI-I (“improvement”).
Only sessions that included methylone dosing were counted as dosing sessions.
Single sessions occurred for 8 of the 28 cases with no booster in two of these cases. In the remainder of the cases, multiple sessions occurred, and booster doses were used in all or some of the remaining patients ([…]) with multiple booster doses used in some or all of the sessions in 15 patients.

[3] = Open field test (OFT); assay type: in vivo, rat; settings: 5 or 15 mg/kg IP, 30 minutes before testing
Protocol: Method: Consecutive beam breaks and/or video-tracking of time spent in the center versus periphery of the open field are measured. Also measured are parameters such as distance traveled and ambulatory activity (horizontal and vertical) for the duration of the test session.
The open field test (OFT) capitalizes on a rodent's innate fear of open spaces to assess anxiety-like behavior. More time spent in the center of an open field reflects an anxiolytic (anti-anxiety) effect.
Locomotor activity was also measured in the OFT.
To investigate whether MBDB has an anti-anxiety (anxiolytic) effect, rats were dosed with MBDB (0.5-30 mg/kg, IP) or vehicle (saline) and 30-minutes later were tested in the open field for 30 minutes. This anxiety test capitalizes on a rodents' innate fear of wide-open spaces and propensity to hug the walls when placed into the open field. Therefore, a drug that increases the time spent in the center of the open field has anxiolytic activity and predicts utility for treating anxiety in humans.

[4] = biological target: 168 GPCRs (Homo sapiens, UniProt Q16581); test: β-arrestin GPCR screen (PathHunter / GPCRmax), antagonist mode; settings: C3AR1, Antagonist mode, 10 uM
168 GPCRs (Homo sapiens, UniProt Q16581), sequence (Q16581 whole entry): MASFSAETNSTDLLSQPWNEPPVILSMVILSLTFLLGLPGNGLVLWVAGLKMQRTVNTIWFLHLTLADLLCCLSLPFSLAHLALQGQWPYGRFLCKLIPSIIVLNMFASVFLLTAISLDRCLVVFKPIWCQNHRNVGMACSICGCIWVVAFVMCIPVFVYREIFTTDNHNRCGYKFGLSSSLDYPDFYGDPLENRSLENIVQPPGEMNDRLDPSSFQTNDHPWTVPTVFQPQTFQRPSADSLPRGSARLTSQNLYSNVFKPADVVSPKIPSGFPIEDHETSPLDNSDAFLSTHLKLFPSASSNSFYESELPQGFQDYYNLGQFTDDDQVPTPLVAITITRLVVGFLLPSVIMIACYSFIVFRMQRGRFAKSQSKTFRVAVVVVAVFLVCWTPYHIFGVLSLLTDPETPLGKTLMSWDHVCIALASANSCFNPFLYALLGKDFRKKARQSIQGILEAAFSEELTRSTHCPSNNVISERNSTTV

[5] = biological target: 168 GPCRs (Homo sapiens, UniProt P32248); test: as above; settings: CCR7, Antagonist mode, 10 uM
168 GPCRs (Homo sapiens, UniProt P32248), sequence (P32248 25-378): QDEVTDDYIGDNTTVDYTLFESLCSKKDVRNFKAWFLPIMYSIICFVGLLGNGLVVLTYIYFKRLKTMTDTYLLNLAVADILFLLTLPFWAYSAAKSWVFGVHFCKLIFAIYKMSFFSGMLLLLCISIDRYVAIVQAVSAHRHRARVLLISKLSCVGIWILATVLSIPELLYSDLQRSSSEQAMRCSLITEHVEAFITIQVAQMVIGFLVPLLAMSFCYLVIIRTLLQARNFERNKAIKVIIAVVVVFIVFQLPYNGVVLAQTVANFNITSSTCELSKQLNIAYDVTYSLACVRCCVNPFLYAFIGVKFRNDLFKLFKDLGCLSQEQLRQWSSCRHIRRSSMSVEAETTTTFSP

[6] = biological target: 168 GPCRs (Homo sapiens, UniProt Q8TDS5); test: as above; settings: OXER1; Antagonist; 1 uM
168 GPCRs (Homo sapiens, UniProt Q8TDS5), sequence (Q8TDS5 whole entry): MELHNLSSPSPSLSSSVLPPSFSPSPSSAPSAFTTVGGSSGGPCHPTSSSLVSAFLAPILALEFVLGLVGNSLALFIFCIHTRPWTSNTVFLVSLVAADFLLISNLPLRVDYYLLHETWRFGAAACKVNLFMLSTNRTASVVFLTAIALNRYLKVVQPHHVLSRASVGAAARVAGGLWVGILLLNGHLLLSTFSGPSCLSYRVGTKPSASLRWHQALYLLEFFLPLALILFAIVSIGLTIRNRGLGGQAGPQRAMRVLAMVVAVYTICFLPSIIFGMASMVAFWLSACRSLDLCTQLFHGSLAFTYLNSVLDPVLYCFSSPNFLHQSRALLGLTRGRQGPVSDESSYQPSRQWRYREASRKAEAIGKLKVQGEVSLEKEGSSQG

[7] = biological target: 168 GPCRs (Homo sapiens, UniProt P51685); test: as above; settings: CCR8, Antagonist mode, 10 uM
168 GPCRs (Homo sapiens, UniProt P51685), sequence (P51685 whole entry): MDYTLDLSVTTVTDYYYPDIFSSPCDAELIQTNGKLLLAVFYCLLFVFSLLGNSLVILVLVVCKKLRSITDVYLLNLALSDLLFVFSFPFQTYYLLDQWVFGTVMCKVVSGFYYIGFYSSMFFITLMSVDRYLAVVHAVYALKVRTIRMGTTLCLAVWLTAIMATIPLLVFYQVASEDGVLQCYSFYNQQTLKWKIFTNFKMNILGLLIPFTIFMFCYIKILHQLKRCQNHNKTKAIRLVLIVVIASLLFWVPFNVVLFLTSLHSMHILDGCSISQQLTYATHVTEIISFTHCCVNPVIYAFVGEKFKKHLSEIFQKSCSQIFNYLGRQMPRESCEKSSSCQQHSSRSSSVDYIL

[8] = biological target: 168 GPCRs (Homo sapiens, UniProt P30874); test: as above; settings: SSTR2; Antagonist; 1 uM
[9] = biological target: 168 GPCRs (Homo sapiens, UniProt P43088); test: as above; settings: PTGFR, Antagonist mode, 10 uM
168 GPCRs (Homo sapiens, UniProt P43088), sequence (P43088 whole entry): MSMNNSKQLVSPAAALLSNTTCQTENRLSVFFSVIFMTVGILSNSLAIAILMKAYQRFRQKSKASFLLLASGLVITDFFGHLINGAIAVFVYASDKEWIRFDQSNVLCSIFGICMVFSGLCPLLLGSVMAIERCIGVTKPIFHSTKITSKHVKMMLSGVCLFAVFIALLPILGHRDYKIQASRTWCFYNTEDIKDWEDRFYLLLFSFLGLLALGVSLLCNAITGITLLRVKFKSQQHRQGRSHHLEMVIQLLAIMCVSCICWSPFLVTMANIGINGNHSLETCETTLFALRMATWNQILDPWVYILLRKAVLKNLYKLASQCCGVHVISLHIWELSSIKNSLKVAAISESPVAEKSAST

[10] = biological target: 168 GPCRs (Homo sapiens, UniProt P08588); test: as above; settings: ADRB1, Antagonist mode, 10 uM
168 GPCRs (Homo sapiens, UniProt P08588), sequence (P08588 whole entry): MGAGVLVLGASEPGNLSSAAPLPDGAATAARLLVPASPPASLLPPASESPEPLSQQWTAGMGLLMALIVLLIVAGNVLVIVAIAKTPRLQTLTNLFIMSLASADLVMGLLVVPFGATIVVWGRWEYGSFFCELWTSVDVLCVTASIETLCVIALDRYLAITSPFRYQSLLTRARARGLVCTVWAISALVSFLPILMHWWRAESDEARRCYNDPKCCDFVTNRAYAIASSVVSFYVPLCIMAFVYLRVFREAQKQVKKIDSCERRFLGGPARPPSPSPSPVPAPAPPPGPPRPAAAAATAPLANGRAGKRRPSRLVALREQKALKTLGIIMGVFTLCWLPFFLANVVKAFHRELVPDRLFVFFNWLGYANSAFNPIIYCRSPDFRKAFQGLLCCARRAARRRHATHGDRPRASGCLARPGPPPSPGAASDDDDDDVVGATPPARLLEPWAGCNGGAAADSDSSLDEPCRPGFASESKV

[11] = biological target: 168 GPCRs (Homo sapiens, UniProt P30411); test: as above; settings: BDKRB2, Antagonist mode, 10 uM
[12] = biological target: 168 GPCRs (Homo sapiens, UniProt Q16602); test: as above; settings: CALCRL-RAMP2, Antagonist mode, 10 uM
168 GPCRs (Homo sapiens, UniProt Q16602), sequence (Q16602 23-461): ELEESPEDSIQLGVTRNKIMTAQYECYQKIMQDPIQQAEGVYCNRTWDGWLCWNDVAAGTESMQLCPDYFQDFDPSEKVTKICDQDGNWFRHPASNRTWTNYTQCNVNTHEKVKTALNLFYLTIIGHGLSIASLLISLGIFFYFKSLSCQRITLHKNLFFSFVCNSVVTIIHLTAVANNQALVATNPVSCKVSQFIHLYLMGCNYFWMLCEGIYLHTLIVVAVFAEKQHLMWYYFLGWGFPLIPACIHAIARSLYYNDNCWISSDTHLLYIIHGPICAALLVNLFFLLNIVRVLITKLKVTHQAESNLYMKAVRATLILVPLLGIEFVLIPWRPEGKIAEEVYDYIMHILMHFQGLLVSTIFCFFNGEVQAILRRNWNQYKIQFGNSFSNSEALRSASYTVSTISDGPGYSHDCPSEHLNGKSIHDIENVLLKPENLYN

[13] = biological target: 168 GPCRs (Homo sapiens, UniProt O43603); test: as above; settings: GALR2, Antagonist mode, 10 uM
168 GPCRs (Homo sapiens, UniProt O43603), sequence (O43603 whole entry): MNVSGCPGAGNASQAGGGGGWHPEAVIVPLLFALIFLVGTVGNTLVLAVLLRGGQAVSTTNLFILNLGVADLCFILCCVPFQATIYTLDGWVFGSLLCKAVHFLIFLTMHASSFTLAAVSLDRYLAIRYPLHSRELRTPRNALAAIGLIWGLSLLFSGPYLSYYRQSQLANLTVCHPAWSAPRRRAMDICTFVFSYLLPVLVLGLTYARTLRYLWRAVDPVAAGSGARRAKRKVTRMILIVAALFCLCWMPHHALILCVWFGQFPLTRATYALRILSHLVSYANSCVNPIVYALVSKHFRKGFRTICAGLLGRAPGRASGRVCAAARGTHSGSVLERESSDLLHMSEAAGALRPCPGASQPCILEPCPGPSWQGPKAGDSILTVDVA

[14] = biological target: 168 GPCRs (Homo sapiens, UniProt P49190); test: as above
168 GPCRs (Homo sapiens, UniProt P49190), sequence (P49190 25-550): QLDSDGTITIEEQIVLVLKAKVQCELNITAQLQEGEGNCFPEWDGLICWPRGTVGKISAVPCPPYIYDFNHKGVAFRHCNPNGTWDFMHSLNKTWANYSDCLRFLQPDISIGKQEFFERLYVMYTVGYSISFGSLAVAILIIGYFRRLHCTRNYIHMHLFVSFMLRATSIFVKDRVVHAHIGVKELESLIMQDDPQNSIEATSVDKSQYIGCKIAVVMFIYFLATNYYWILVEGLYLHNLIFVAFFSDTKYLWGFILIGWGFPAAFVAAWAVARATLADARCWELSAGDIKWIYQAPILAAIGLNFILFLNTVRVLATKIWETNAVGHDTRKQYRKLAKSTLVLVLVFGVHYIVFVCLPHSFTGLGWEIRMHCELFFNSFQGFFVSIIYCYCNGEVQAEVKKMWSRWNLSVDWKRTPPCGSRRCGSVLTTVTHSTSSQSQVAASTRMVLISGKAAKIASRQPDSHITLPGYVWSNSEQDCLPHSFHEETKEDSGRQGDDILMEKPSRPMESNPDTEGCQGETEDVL

[15] = biological target: 168 GPCRs (Homo sapiens, UniProt P30556); test: as above
168 GPCRs (Homo sapiens, UniProt P30556), sequence (P30556 whole entry): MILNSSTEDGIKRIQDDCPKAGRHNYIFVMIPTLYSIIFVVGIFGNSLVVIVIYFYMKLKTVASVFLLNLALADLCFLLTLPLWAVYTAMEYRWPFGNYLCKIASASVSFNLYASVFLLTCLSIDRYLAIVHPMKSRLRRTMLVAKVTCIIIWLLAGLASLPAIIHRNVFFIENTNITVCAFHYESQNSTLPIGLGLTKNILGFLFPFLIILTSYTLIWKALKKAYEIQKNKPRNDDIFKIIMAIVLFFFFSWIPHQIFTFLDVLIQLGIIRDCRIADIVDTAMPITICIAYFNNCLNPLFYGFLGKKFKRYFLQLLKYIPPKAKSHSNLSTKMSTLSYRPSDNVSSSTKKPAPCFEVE

[16] = biological target: serotonin transporter (SERT) (Rattus norvegicus, UniProt P31652); test: [3H]5HT uptake saturation in rat brain synaptosomes with or without methylone; assay type: biochemical; settings: Kd right shifted, no decrease in Bmax
serotonin transporter (SERT), sequence (P31652 whole entry): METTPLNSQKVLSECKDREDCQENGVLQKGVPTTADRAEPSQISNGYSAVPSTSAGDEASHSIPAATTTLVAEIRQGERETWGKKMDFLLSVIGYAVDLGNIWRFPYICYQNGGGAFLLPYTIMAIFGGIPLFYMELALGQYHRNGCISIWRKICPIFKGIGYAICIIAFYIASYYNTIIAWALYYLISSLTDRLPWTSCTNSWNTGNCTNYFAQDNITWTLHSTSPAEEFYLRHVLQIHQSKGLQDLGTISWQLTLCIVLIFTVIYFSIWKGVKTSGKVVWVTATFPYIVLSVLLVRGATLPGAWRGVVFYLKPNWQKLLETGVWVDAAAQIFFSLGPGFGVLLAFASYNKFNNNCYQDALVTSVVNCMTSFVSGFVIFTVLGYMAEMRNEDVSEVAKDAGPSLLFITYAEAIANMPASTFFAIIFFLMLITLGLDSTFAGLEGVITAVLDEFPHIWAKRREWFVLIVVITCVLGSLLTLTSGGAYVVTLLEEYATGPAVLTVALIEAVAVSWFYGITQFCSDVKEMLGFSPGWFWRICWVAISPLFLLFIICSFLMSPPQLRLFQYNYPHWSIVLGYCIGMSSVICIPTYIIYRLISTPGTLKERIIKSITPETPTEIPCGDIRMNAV

[17] = tested on: gene expression in amygdala, frontal cortex, hippocampus; test: RNA-sequencing of rat brain areas after a single dose; assay type: in vivo; settings: for Genes differentially regulated vs. vehicle: 10 mg/kg IP, 8 hours

SMILES: CNC(C)C(=O)c1ccc2c(c1)OCO2 (stereo not shown) [Methylone, 3,4-methylenedioxy-N-methylcathinone]
- AUC(0-inf) ([1]; IM 15 mg/kg): 4610 ng·h/mL
- Cmax ([1]; IM 15 mg/kg): 5400 ng/mL
- half-life ([1]; IM 15 mg/kg): 44.4 min
- AUC(0-inf) ([1]; IM 20 mg/kg): 6370 ng·h/mL
- Cmax ([1]; IM 20 mg/kg): 5920 ng/mL
- half-life ([1]; IM 20 mg/kg): 42 min
- AUC(0-inf) ([1]; IP 15 mg/kg): 2590 ng·h/mL
- Cmax ([1]; IP 15 mg/kg): 1250 ng/mL
- half-life ([1]; IP 15 mg/kg): 56.1 min
- AUC(0-inf) ([1]; PO 15 mg/kg): 2290 ng·h/mL
- Cmax ([1]; PO 15 mg/kg): 552 ng/mL
- half-life ([1]; PO 15 mg/kg): 136 min
- AUC(0-inf) ([1]; SC 15 mg/kg): 4330 ng·h/mL
- Cmax ([1]; SC 15 mg/kg): 3650 ng/mL
- half-life ([1]; SC 15 mg/kg): 49.2 min
- AUC(0-inf) ([1]; SC 20 mg/kg): 5960 ng·h/mL
- Cmax ([1]; SC 20 mg/kg): 4320 ng/mL
- half-life ([1]; SC 20 mg/kg): 52.2 min
- Adverse effects in healthy subjects ([2]; Cohort 1, 4 subjects, single session, total dose 790 or 870 mg): no adverse effects or after-effects were observed or reported
- Cases well tolerated with no safety events reported ([2]; Cohort 2, 25 of 28 cases): 89.3%
- Patients with initial improvement at the first methylone session ([2]; Cohort 2, 25 of 28 patients): ~90%
- Number of cases with CGI-I 2 ([2]; Cohort 2, N = 28): 13
- Number of cases with CGI-I 3 ([2]; Cohort 2, N = 28): 4
- Number of cases with CGI-I 4 ([2]; Cohort 2, N = 28): 0
- Number of cases with CGI-I 5 ([2]; Cohort 2, N = 28): 0
- Number of cases with CGI-I 6 ([2]; Cohort 2, N = 28): 0
- Number of cases with CGI-I 7 ([2]; Cohort 2, N = 28): 0
- Number of cases with CGI-I 1 (highest observed magnitude of improvement) ([2]; Cohort 2, N = 28 PTSD/MDD patients, oral): 11*
- Patients achieving CGI-I 1 or 2 ([2]; Cohort 2 overall): 86%
- Cases reporting a durable effect ([2]; MDD subset, 6 narratives with durability information): 5
- Patients achieving CGI-I 1 or 2 ([2]; MDD subset, 8/8 patients): 100%
- Patients achieving CGI-I 1 or 2 ([2]; PTSD subset, 16/20 patients): 80%
- Case narratives reporting a durable effect ([2]; PTSD subset, 16 narratives with durability information): 15
- Time spent in the center of the open field vs. vehicle [3]: significantly increases the time spent in the center of the open field
- % Activity [4]: 0.3%
- % Activity [5]: −3.4%
- % Activity [6]: 2.9%
- % Activity [7]: −0.3%
- % Activity [8]: −0.4%
- % Activity [9]: 0%
- % Activity [10]: −1.2%
- % Activity [11]: −2.6%
- % Activity [12]: 7%
- % Activity [13]: 1.5%
- % Activity ([14]; PTHR2, Antagonist mode, 10 uM): −0.2%
- % Activity ([14]; PTHR2, Antagonist, 1 uM): −1%
- % Activity ([15]; AGTR1, Antagonist mode, 10 uM): −1.4%
- % Activity ([15]; AGTR1, Antagonist, 1 uM): 3.3%
- Type of interaction at the SERT [16]: competitive
- Genes regulated by methylone that are also regulated by MDMA ([17]; amygdala): 87%
- Genes differentially regulated vs. vehicle ([17]; amygdala, >25% change, padj<0.1): 121 genes
- Genes regulated by both treatments ([17]; frontal cortex): 154 genes
- Genes significantly regulated ([17]; frontal cortex, 10 mg/kg IP (Example 27)): 480 genes
- Genes differentially regulated vs. vehicle ([17]; frontal cortex): 471 genes
- Genes differentially regulated vs. vehicle ([17]; hippocampus): 12 genes
